{"source": "patent US5036008A", "about": "“Antitumor antibiotic BU-3285T” (Bristol-Myers Company, priority 1990, dated 1991)", "key": {"[1]": {"test_system": "B16-F10 (murine melanoma) cells", "experiment": "In vitro cytotoxicity (Table 14)", "type": "cell-based", "settings": "Mus musculus, B16-F10, 72 h", "experimental": "B16-F10 (murine melanoma), HCT-116 (human colon carcinoma), A549 (human lung carcinoma) and A549/VP29 (an etoposide-resistant subline of A549) were grown in Eagle's MEM (Nissui) supplemented with FCS (fetal calf serum, 10%) and non-essential amino acids (B16-F10), or in McCoy's 5A medium (Gibco) with FCS (10%), essential and non-essential amino acids, vitamins and antibiotics (HCT-116 and both of A549) at 37° C. under a humidified atmosphere in a 5% CO2 incubator. Exponentially growing B16-F10, HCT-116 and A549 cells were harvested, counted and suspended in the culture medium at 1.5×10^4, 3×10^4 and 3×10^4 cells/ml, respectively. After planting 180 μl of cell suspension into wells of a 96-well microtiter plate on day 0, the test materials (20 μl) were added on day 1 and the plates were incubated for 72 hours. The cytotoxic activity was colorimetrically determined at 540 nm after staining viable cells with neutral red solution."}, "[2]": {"test_system": "Fusarium moniliforme A2284", "experiment": "In vitro antifungal activity, serial agar dilution", "settings": "Fusarium verticillioides, A2284, 40 h, pH 7", "experimental": "(§4) In vitro antifungal activity was determined against various fungi by the serial agar dilution method. Sabouraud dextrose agar (pH 7.0) was used for the experiment. The inoculum size was adjusted to 10^6 CFU/ml. After incubation at 28° C. for 40 hours, the minimum inhibitory concentration (MIC) was examined."}, "[3]": {"test_system": "DNA biosynthesis in L1210 leukemia cells", "experiment": "Inhibition of macromolecule biosynthesis, DNA (Table 15)", "type": "cell-based, murine", "settings": "at 100 μg/ml, the highest concentration tested", "method": "(§1) Inhibitory effects of the above compounds on macromolecule (DNA, RNA and protein) biosynthesis were determined in cultured L1210 murine leukemia cells. The cells (5×10^5 cells/ml) were incubated with the test materials at 37° C. for 15 minutes and then further incubated for 60 minutes after the addition of labeled precursor, ^3 H-thymidine, ^14 C-uridine or ^3 H-leucine into the cultured mixture. After washing with chilled 5% trichloroacetic acid solution, the radioactivity incorporated into the acid-insoluble fraction of the cells was determined with a liquid scintillation counter."}, "[4]": {"test_system": "C. neoformans IAM4514", "experiment": "In vitro antifungal activity, serial agar dilution", "settings": "Cryptococcus neoformans, IAM4514, 40 h, pH 7", "experimental": "as §4"}, "[5]": {"test_system": "T. mentagrophytes #4329", "experiment": "In vitro antifungal activity, serial agar dilution", "settings": "Trichophyton mentagrophytes, 40 h, pH 7", "experimental": "as §4"}, "[6]": {"test_system": "B16 melanoma", "experiment": "In vivo antitumor activity against B16 melanoma (Table 10)", "experimental": "Female CDF1 mice were intraperitoneally inoculated with 0.4 ml of diluted ascitic fluid containing 10^6 lymphocytic leukemia P388 cells or 10^5 lymphoid leukemia L1210 cells and male BDF1 mice were intraperitoneally inoculated with 0.5 ml of 10% melanotic melanoma B16 brei."}, "[7]": {"test_system": "Candida albicans IAM4888", "experiment": "In vitro antifungal activity, serial agar dilution", "settings": "IAM4888, 40 h, pH 7", "experimental": "as §4"}, "[8]": {"test_system": "P388/VCR (vincristine-resistant subline of P388) cells", "experiment": "In vitro cytotoxicity (Table 6)", "method": "(§2) BU-3285T was tested for in vitro cytotoxicity against several murine and human tumor cell lines and for in vivo antitumor activity in mice. Mitomycin C was used as a reference compound in both in vitro and in vivo experiments. B16-F10 (murine melanoma) and Moser (human colorectal carcinoma) cells were grown to the logarithmic phase in an enriched Eagle minimum essential medium supplemented with fetal calf serum (FCS, 10%) and kanamycin (60 μg/ml); HCT-116 (human colon carcinoma) cells were in McCoy's 5A medium supplemented with FCS (10%), penicillin (100 U/ml) and streptomycin (100 μg/ml); and P388 (murine lymphocytic leukemia) cells and its vincristine-resistant subline (P388/VCR) were in RPMI 1640 medium supplemented with FCS (10%), penicillin (100 U/ml) and streptomycin (100 μg/ml).\n(§3) B16-F10, Moser, HCT-116 and P388 cells were harvested and implanted into wells of a 96-well (for B16-F10, Moser and HCT-116 cells) or a 24-well (for P388 cells) tissue culture plate with test materials at the inoculum sizes of 3×10^4, 6 ×10^4, 6×10^4 and 2×10^4 cells/ml, respectively. They were incubated at 37° C. in a humidified atmosphere of 5% CO2 and 95% air for 72 hrs. […] For P388 cells, the number of viable cells was determined by a Coulter counter."}, "[9]": {"test_system": "Moser (human colorectal carcinoma) cells", "experiment": "In vitro cytotoxicity (Table 6)", "method": "as §2, §3"}, "[10]": {"test_system": "B16-F10 (murine melanoma) cells", "experiment": "In vitro cytotoxicity (Table 6)", "type": "cell-based", "settings": "Mus musculus; B16-F10, 72 hrs, neutral red", "method": "as §2, §3"}, "[11]": {"test_system": "P388 (murine lymphocytic leukemia) cells", "experiment": "In vitro cytotoxicity (Table 6)", "type": "cell-based", "settings": "Mus musculus; P388, 72 hrs, Coulter counter", "method": "as §2, §3"}, "[12]": {"test_system": "HCT-116 (human colon carcinoma) cells", "experiment": "In vitro cytotoxicity (Table 6)", "type": "cell-based", "settings": "HCT-116, 72 hrs, neutral red", "method": "as §2, §3"}, "[13]": {"test_system": "RNA biosynthesis in L1210 leukemia cells", "experiment": "Inhibition of macromolecule biosynthesis, RNA (Table 7)", "type": "cell-based, murine", "settings": "Mus musculus, labelled precursor, 15 min + 60 min, 37° C., read-out: IC50, RNA synthesis", "method": "as §1, with “of BU-3285T” for “of the above compounds”, “macromolecule biosynthesis” for “macromolecule”, “protein)” for “protein) biosynthesis”, “the compound” for “the test materials”, “of labelled” for “of labeled”, “determined by” for “determined with”"}, "[14]": {"test_system": "Petriellidium boydii IF08078", "experiment": "In vitro antifungal activity, serial agar dilution", "settings": "Scedosporium boydii, IF08078, 40 h, pH 7", "experimental": "as §4"}, "[15]": {"test_system": "L1210 leukemia", "experiment": "In vivo antitumor activity against L1210 leukemia (Table 9)", "settings": "for Body wt. change on day 6 / MST (median survival time) / T/C: Q1D × 3"}, "[16]": {"test_system": "protein biosynthesis in L1210 leukemia cells", "experiment": "Inhibition of macromolecule biosynthesis, protein (Table 7)", "type": "cell-based, murine", "method": "as §1, with “of BU-3285T” for “of the above compounds”, “macromolecule biosynthesis” for “macromolecule”, “protein)” for “protein) biosynthesis”, “the compound” for “the test materials”, “of labelled” for “of labeled”, “determined by” for “determined with”"}, "[17]": {"test_system": "A. fumigatus IAM2034", "experiment": "microbe, parasite or virus in culture", "settings": "Aspergillus fumigatus, IAM2034, 40 h, pH 7", "experimental": "as §4"}, "[18]": {"test_system": "Cryptococcus neoformans D49", "experiment": "In vitro antifungal activity, serial agar dilution", "settings": "D49, 40 h, pH 7", "experimental": "as §4"}, "[19]": {"test_system": "A549/VP29 (etoposide-resistant subline of A549) cells", "experiment": "In vitro cytotoxicity (Table 14)", "settings": "A549/VP29, 72 hours, neutral red", "experimental": "After planting 180 μl of cell suspension into wells of a 96-well microtiter plate on day 0, the test materials (20 μl) were added on day 1 and the plates were incubated for 72 hours. The cytotoxic activity was colorimetrically determined at 540 nm after staining viable cells with neutral red solution."}, "[20]": {"test_system": "DNA biosynthesis in L1210 leukemia cells", "experiment": "Inhibition of macromolecule biosynthesis, DNA (Table 7)", "type": "cell-based, murine", "method": "as §1, with “of BU-3285T” for “of the above compounds”, “macromolecule biosynthesis” for “macromolecule”, “protein)” for “protein) biosynthesis”, “the compound” for “the test materials”, “of labelled” for “of labeled”, “determined by” for “determined with”"}}, "note": "Entries after “also recorded” stand apart in the source; their conditions may differ."}
{"compound": "CCCCC/C=C/C=C\\C=C/C(O)C(C)C(C/C=C/C1OC(=O)C=CC1O)OS(=O)(=O)O", "note": "(stereo not drawn) [BU-3285T]", "values": [{"measurement": "IC50", "setting": "[1]", "result": 38, "unit": "µg/mL"}, {"measurement": "MIC", "setting": "[2]", "result": 25, "unit": "µg/mL"}, {"measurement": "inhibitory effect on DNA synthesis", "setting": "[3]", "result": "no significant inhibitory effect"}, {"measurement": "MIC", "setting": "[4]", "result": 1.6, "unit": "µg/mL"}, {"measurement": "MIC", "setting": "[5]", "result": 12.5, "unit": "µg/mL"}, {"measurement": "activity compared with mitomycin C", "setting": "[6]; B16, in terms of minimum effective dose", "result": "somewhat weaker"}, {"measurement": "in vivo antitumor activity", "setting": "[6]; B16 melanoma in mice", "result": "potent in vivo inhibitory activity; also recorded: good antitumor activity"}, {"measurement": "MIC", "setting": "[7]", "result": 25, "unit": "µg/mL"}, {"measurement": "IC50", "setting": "[8]; Mus musculus, P388/VCR, 72 h", "result": 4.4, "unit": "µg/mL"}, {"measurement": "cytotoxicity against P388/VCR compared with parent cells", "setting": "[8]; vs P388 parent", "result": "almost the same cytotoxicity"}, {"measurement": "IC50", "setting": "[9]; Homo sapiens, 72 h", "result": 0.85, "unit": "µg/mL"}, {"measurement": "cytotoxic activity, comparison among cell lines", "setting": "[9]; among B16-F10, HCT-116 and Moser", "result": "most potent cytotoxic activity against Moser cells"}, {"measurement": "IC50", "setting": "[10]", "result": 13.3, "unit": "µg/mL"}, {"measurement": "IC50", "setting": "[11]", "result": 3.8, "unit": "µg/mL"}, {"measurement": "IC50", "setting": "[12]", "result": 3.4, "unit": "µg/mL"}, {"measurement": "IC50", "setting": "[13]", "result": 14.4, "unit": "µg/mL"}, {"measurement": "MIC", "setting": "[14]", "result": 0.8, "unit": "µg/mL"}, {"measurement": "Body wt. change on day 6", "setting": "[15]; 0.1 mg/kg/day ip", "result": "+2.3 g"}, {"measurement": "MST (median survival time)", "setting": "[15]; 0.1 mg/kg/day ip", "result": 8.0, "unit": "days"}, {"measurement": "T/C", "setting": "[15]; 0.1 mg/kg/day ip, significant if T/C ≥ 125%", "result": 114, "unit": "%"}, {"measurement": "Body wt. change on day 6", "setting": "[15]; 0.3 mg/kg/day ip", "result": "+2.5 g"}, {"measurement": "MST (median survival time)", "setting": "[15]; 0.3 mg/kg/day ip", "result": 8.0, "unit": "days"}, {"measurement": "T/C", "setting": "[15]; 0.3 mg/kg/day ip, *2 significant, T/C ≥ 125%", "result": 114, "unit": "%"}, {"measurement": "Body wt. change on day 6", "setting": "[15]; 1 mg/kg/day ip", "result": "+1.5 g"}, {"measurement": "MST (median survival time)", "setting": "[15]; 1 mg/kg/day ip", "result": 9.0, "unit": "days"}, {"measurement": "T/C", "setting": "[15]; 1 mg/kg/day ip, *2 significant, T/C ≥ 125%", "result": 129, "unit": "%"}, {"measurement": "Body wt. change on day 6", "setting": "[15]; 3 mg/kg/day ip", "result": "+1.5 g"}, {"measurement": "MST (median survival time)", "setting": "[15]; 3 mg/kg/day ip", "result": 9.0, "unit": "days"}, {"measurement": "T/C", "setting": "[15]; 3 mg/kg/day ip, *2 significant, T/C ≥ 125%", "result": 129, "unit": "%"}, {"measurement": "Body wt. change on day 6", "setting": "[15]; 10 mg/kg/day ip", "result": 0.0, "unit": "g"}, {"measurement": "MST (median survival time)", "setting": "[15]; 10 mg/kg/day ip", "result": 10.5, "unit": "days"}, {"measurement": "T/C", "setting": "[15]; 10 mg/kg/day ip, *2 significant, T/C ≥ 125%", "result": 150, "unit": "%"}, {"measurement": "activity compared with mitomycin C", "setting": "[15]; L1210, in terms of minimum effective dose", "result": "somewhat weaker"}, {"measurement": "in vivo antitumor activity", "setting": "[15]; L1210 leukemia in mice", "result": "potent in vivo inhibitory activity; also recorded: good antitumor activity"}, {"measurement": "inhibition of protein synthesis (specificity)", "setting": "[16]; L-1210 leukemia cells", "result": "specific inhibitor of protein synthesis"}, {"measurement": "IC50", "setting": "[16]; Mus musculus, L1210, labelled precursor, 15 min + 60 min, 37° C., read-out: IC50, protein synthesis", "result": 0.78, "unit": "µg/mL"}, {"measurement": "inhibition of protein synthesis stronger than RNA synthesis", "setting": "[16]; protein vs RNA synthesis, L1210 cells", "result": 18, "unit": "times"}, {"measurement": "MIC", "setting": "[17]", "result": "> 100", "unit": "µg/mL"}, {"measurement": "MIC", "setting": "[18]", "result": 1.6, "unit": "µg/mL"}, {"measurement": "IC50", "setting": "[19]", "result": 17, "unit": "µg/mL"}, {"measurement": "IC50", "setting": "[20]; Mus musculus, L1210, 3H-thymidine, ^14 C-uridine or 3H-leucine precursor, 15 min + 60 min, 37° C., read-out: IC50, DNA synthesis", "result": "> 100", "unit": "µg/mL"}, {"measurement": "inhibitory effect on DNA synthesis", "setting": "[20]; at 100 μg/ml, the highest concentration tested", "result": "no significant inhibitory effect"}]}
